Test results: patent publication US10328075B2, “Method of treatment and compounds for use therein” (Baker Heart and Diabetes Institute, priority 2015, dated 2019)
Read-outs that look alike come from different tables or passages of the source.

Biological target: T1, hFPR2 (Homo sapiens, UniProt P25090)
T1 construct: expressed in transfected cells
T1 sequence (P25090 1-351): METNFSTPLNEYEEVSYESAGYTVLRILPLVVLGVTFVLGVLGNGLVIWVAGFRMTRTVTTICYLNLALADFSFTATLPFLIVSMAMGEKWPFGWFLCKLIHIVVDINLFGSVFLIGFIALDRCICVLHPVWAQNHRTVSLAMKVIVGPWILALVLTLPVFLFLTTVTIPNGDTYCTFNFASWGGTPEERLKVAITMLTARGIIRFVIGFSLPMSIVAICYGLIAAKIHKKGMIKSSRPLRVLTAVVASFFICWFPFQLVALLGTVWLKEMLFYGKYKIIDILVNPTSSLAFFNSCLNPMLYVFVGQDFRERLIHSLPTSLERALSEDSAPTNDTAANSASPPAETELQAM
Assay: [Ca2+]i mobilization in FlpIn-CHO cells stably expressing hFPR2
Format: cell-based
Conditions: for Emax: Flp-In-CHO; for EC50: read-out: pEC50, [Ca^2+]i mobilization, hFPR2-Flpln-CHO (converted); for ΔLog(τ/KA), [Ca^2+]i mobilization, hFPR2-Flpln-CHO: normalized transduction coefficient, reference agonist Cmpd43; for Log(τ/KA), [Ca^2+]i mobilization, hFPR2-Flpln-CHO: transduction coefficient
Excerpt: cDNDA construct and generation of stable cell lines: cDNA in pcDNA3.1^+ encoding the human formyl peptide receptors (FPR) subtypes, hFPR1, hFPR2 and hFPR3 was obtained from Invitrogen. The sequences for 3 hFPR receptors were amplified by PCR and cloned into the Gateway entry vector, pDONR202™, using the BP clonase enzyme mix, according to the manufactures' instructions (Invitrogen Inc, Carlsbad, Calif., USA). All hFPR receptors constructs in pDONR201™ were subsequently transfected into the pEF5/FRT/V5/dest vector using the LR clonase enzyme mix (Invitrogen). Receptor constructs (pEF5/FRT/V5/dest) were used to transfect FIp-In CHO cells as described previously (Valant C et al., PNAS, 2014). Cells were selected using 500 μg/mL hydromycin to generate cell lines stably expressing each receptor construct. Cells were maintained and cultured in high glucose DMEM supplemented with 10% FBS, 16 mM HEPES and 500 μg/mL hydromycin at 37° C. under a humidified atmosphere containing 5% CO2.
In the various assays described below, cells were plated into 96-well transparent cell culture plates at 4×10^4 cells per well, cultured overnight in serum-free media at 37° C. in 5% CO2.
Intracellular calcium mobilization: Intracellular calcium mobilization was assayed as described previously (Keov, P et al., 2014). Briefly, cells were washed once using HEPES buffered saline (HBS) solution [150 mM NaCl, 2.2 mM CaCl2, 2.6 mM KCl, 1.2 mM MgCl2, 10 mM HEPEs, 10 mM D-Glucose, 0.5% (w/v) bovine serum albumin (BSA) and 4 mM probenecid] at pH 7.4, then treated with Fluo-4-AM (1 μM, in HBS/BSA/probenecid) for 60 min at 37° C. in 5% CO2 in the dark. Cells were then further washed and placed in HBS/BSA/probenecid solution for ligation addition and assay using the FLEXstation 3 plate reader (Molecular Devices, Sunnyvale, Calif.). For all experiments, peak change in fluorescence signal was normalized to the cellular response to 100 μM ATP, which was used as an internal positive control.
Data analysis: All data were analysed using GraphPad Prism 6.0 (GraphPad Software, San Deigo, Calif., USA). Where appropriate, concentration-response curves were fitted to derive the maximal agonist effect (Emax), and the ligand potency estimate (pEC50), where Emax is the maximal possible response of the system (not the agonist), basal is the basal level of response in the absence of agonist, and pEC50 is the negative logarithm of the agonist concentration that gives a response halfway between Emax and basal.
In the present study, FIp-IN CHO cells and Gateway plasmid were obtained from Invitrogen Inc (Carlsbad, Calif., USA). The sequences for all 3 known human FPRs (hFPR1, hFPR2 and hFPR3) were amplified by PCR and cloned into the Gateway entry vector, pDONR202TM, using the BP clonase enzyme mix, according to the manufacturers' instructions. The hFPR pDONR201TM constructs were subsequently transfected into the pEF5/FRT/V5/dest vector using the LR clonase enzyme mix (Invitrogen). Receptor constructs (pEF5/FRT/V5/dest) were used to transfect FIp-IN CHO cells, as described previously (Valant et al. 2014). Cells were selected using 500 μg/mL hydromycin to generate cell lines stably expressing each human receptor construct. Cells were maintained and cultured in high glucose Dulbecco's modified eagle medium (DMEM) supplemented with 10% fetal bovine serum (FBS, from JRH Biosciences, Lenexa, Kans., USA) and 500 μg/mL hydromycin B (Invitrogen Inc) at 37° C. under a humidified atmosphere containing 5% CO2. Cell were plated into 96-well transparent cell culture plates at 4×10^4 cells per well, cultured overnight in serum-free media at 37° C. in 5% CO2.
(ii) Intracellular Ca2+ mobilization: Intracellular Ca2+ mobilization was determined in stably-transfected recombinant hFPR CHO cells, as described previously (Valant et al. 2014).

[1] = Table 1, percentage of [Ca^2+]i mobilization elicited by ATP, read-out: Emax (%), [Ca^2+]i mobilization, hFPR2-Flpln-CHO
[2] = Table 8, percent of response elicited by ATP, read-out: Emax, [Ca^2+]i mobilization, hFPR2-Flpln-CHO

Structure (SMILES) | Emax [1] [%] | Emax [2] [%] | EC50 (Table 1) [nM] | ΔLog(τ/KA), [Ca^2+]i mobilization, hFPR2-Flpln-CHO (Table 8) | EC50 (Table 8) [nM] | Log(τ/KA), [Ca^2+]i mobilization, hFPR2-Flpln-CHO (Table 8) | Potency range of Ca^2+ mobilization in hFPR2-CHO cells (in words)
CC(C)C1C(NC(=O)Nc2ccc(Cl)cc2)C(=O)N(c2ccccc2)N1C (centres unmarked) [BIDI-002] | 51 ± 3 | 51 ± 3 | 20.9 | 0.0 | 20 | 7.7 ± 0.3 | 
CSCC[C@H](NC=O)C(=O)N[C@@H](CC(C)C)C(=O)N[C@@H](Cc1ccccc1)C(=O)O [fMLP, N-formyl-Met-Leu-Phe] | 38 ± 4 | 38 ± 4 |  | −2.2 ± 0.3 |  | 5.4 ± 0.1 | micromolar range
